Reference: patent publication US11766404B2, “Bioavailable dithiocarbamate-metal complex particles, method of preparation and use thereof” (priority 2018, dated 2023)

What was measured:
[1] = tested on: MDA-MB-231 breast cancer tumours subcutaneously xenografted into the SCID mice; experiment: Growth of MDA-MB-231 tumours xenografted into SCID mice; format: in vivo; details: CuET 1 mg/kg i.p., 5 days ON and 2 days OFF
Method: To test directly effect of CuET-albumin nanoparticles we used MDA-MB-231 and AMO1 models. MDA-MB-231 was injected (5*10^6 cells were transplanted s.c.) to grow tumours in SCID mice (Anlab, CZ). Similarly, the AMO-1 xenografts were expanded in SCID mice. Each group consisted of 10 animals, each bearing two tumours. CuET was formulated as nanoparticulate system in mouse serum albumin according to Example 12 or as the neat CuET powder (obtained from TOKYO CHEMICAL […] CO., LTD.) dissolved in olive oil which is a standard formulation for non-polar compounds applied intraperitoneally in the mice experiments to final concentration 1 mg/ml. Olive oil alone and mouse serum albumin solutions were used as the vehicle controls. All solutions were applied intraperitoneally in a schedule 5 days ON and 2 days OFF, the CuET was applied in the final dose 1 mg per kg of body weight. All aspects of the animal studies met the accepted criteria for the care and experimental use of laboratory animals.

[2] = cited from earlier work

CCN(CC)C(=S)[S-].CCN(CC)C(=S)[S-].[Cu+2] [neat CuET powder, bis(diethyldithiocarbamate)copper(II)]
effect on tumour growth [1]: Only the CuET-albumin nanoparticle shows significant effect
solubility constant in water [2]: in the range of nanograms per litre
